The source of these data is paper PMC4112151 (Bioorganic & medicinal chemistry, 2014).

The target of assay [1] is T1, DOPr (Homo sapiens, UniProt P41143). Put plainly: [35S]GTPγS binding, CHO membranes, standard DPDPE. Type of assay: biochemical. Particulars: for Kd: Ke/nM DOPr, antagonist Ke versus DPDPE, single agonist concentration.
Assay [2] concerns the target T2, MOPr (Homo sapiens, UniProt P35372). Put plainly: [35S]GTPγS binding, CHO membranes, standard DAMGO. The assay is classed as biochemical. The settings on record: Ke/nM MOPr, antagonist Ke versus DAMGO, single agonist concentration.
Assay [3] addresses T3, KOPr (Homo sapiens, UniProt P41145). Put plainly: [35S]GTPγS binding, CHO membranes, standard U69593. The settings on record: for Kd: Ke/nM KOPr, antagonist Ke versus U69593, single agonist concentration; for fold more potent as KOPr antagonist than 17-methyl equivalent: ratio of Ke: 5k vs 5b, 5i vs 5e. Type of assay: biochemical. For orientation: GTPγS is a poorly hydrolysed GTP analogue; its binding reports G protein activation.

Assay [4] has as its target T1, DOPr. Type of assay: binding.
For assay [5], the target named is T3, KOPr. Type of assay: binding.
Assay [6] deals with DOPr. The settings on record: cited from earlier work.
The target of assay [7] is T2, MOPr. The assay is classed as binding.
In assay [8] the test system is MOPr. Particulars: read-out: EC50 MOPr partial agonist activity in [35S]GTPγS assay; cited from earlier work.
Assay [9] concerns the target MOPr. Particulars: read-out: Ke MOPr antagonist activity in GPI assay; GPI isolated tissue; cited from earlier work.
The subject of assay [10] is MOPr. Briefly: Guinea pig ileum. The settings on record: 7b Ke in GPI (ref 8) vs 5k Ke in [35S]GTPγS assay.

T3 sequence (P41145 whole entry): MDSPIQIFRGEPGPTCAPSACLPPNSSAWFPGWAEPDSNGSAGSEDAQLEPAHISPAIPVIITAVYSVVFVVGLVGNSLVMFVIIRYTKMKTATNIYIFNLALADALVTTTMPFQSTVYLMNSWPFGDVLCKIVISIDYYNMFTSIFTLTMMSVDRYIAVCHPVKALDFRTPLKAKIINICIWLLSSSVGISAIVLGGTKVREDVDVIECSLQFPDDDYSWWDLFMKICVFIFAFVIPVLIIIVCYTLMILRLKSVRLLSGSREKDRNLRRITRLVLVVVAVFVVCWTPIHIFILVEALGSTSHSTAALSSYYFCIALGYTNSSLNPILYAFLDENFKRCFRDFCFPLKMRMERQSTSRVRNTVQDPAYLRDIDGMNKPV
T2 sequence (P35372 whole entry): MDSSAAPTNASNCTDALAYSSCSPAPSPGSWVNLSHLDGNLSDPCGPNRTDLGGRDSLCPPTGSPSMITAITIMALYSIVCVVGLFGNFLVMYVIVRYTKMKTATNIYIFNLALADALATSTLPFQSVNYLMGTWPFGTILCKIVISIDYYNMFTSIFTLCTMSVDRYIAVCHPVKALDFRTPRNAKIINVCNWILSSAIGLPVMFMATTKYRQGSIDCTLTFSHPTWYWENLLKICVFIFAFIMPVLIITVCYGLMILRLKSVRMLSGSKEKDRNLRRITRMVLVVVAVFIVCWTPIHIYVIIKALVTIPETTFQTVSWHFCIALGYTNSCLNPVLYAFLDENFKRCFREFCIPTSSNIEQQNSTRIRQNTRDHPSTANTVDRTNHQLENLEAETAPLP
T1 sequence (P41143 whole entry): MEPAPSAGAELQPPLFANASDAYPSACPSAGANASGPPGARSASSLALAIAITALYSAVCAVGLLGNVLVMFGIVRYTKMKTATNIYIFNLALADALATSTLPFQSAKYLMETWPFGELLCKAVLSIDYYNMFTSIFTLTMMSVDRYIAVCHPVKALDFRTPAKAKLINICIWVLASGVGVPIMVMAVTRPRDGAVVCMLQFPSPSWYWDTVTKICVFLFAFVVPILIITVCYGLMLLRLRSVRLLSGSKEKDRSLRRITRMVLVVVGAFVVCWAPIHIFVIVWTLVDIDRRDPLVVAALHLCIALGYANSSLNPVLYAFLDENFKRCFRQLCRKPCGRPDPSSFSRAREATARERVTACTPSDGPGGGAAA

In the case of `CCOC(=O)Cc1c2c(n(Cc3ccccc3)c1O)[C@@H]1Oc3c(O)ccc4c3[C@@]13CCN(CC1CC1)[C@H](C4)[C@]3(O)C2` [4b], the Kd was 6.79 nM on DOPr [1], 6.61 nM on MOPr [2] and 4.3 nM at KOPr [3].
In turn, `CN1C(=O)CCC2=C1[C@@H]1Oc3c(O)ccc4c3[C@@]13CCN(C)[C@H](C4)[C@]3(O)C2` [5a] gave a Kd at KOPr [3] of 392 nM.
Consider `CN1CC[C@]23c4c5ccc(O)c4O[C@H]2C2=C(CCC(=O)N2Cc2ccccc2)C[C@@]3(O)[C@H]1C5` [5b], for which, on DOPr [1] (% stimulation relative to the standard DPDPE), the “%stim DOPr” value came to 94%. Further, the “fold lower binding affinity at DOPr than at MOPr” value at DOPr [4] (ratio of Ki, DOPr vs MOPr) is reported as “around 3 fold”. Besides, on KOPr [5] (ratio of Ki, KOPr vs MOPr), the “fold lower binding affinity at KOPr than at MOPr” value is about 6 fold. The Kd on KOPr [3] was found to be 21.3 nM.
Turning to `CN1C(=O)[C@H](CCO)CC2=C1[C@@H]1Oc3c(O)ccc4c3[C@@]13CCN(C)[C@H](C4)[C@]3(O)C2` [5c], at KOPr [3], the Kd amounted to 321 nM.
Same read-out and setting: the same measure for `CN1C(=O)[C@@H](CCO)CC2=C1[C@@H]1Oc3c(O)ccc4c3[C@@]13CCN(C)[C@H](C4)[C@]3(O)C2` [5d]: 2140 nM.
For the compound `CN1CC[C@]23c4c5ccc(O)c4O[C@H]2C2=C(C[C@@H](CCO)C(=O)N2Cc2ccccc2)C[C@@]3(O)[C@H]1C5` [5e], the Kd at MOPr [2] was 32.9 nM; at KOPr [3], 29.3 nM.
As to `CN1CC[C@]23c4c5ccc(O)c4O[C@H]2C2=C(C[C@H](CCO)C(=O)N2Cc2ccccc2)C[C@@]3(O)[C@H]1C5` [5f], the Kd at KOPr [3] came to 16.8 nM.
On to `C[C@@H]1CC2=C([C@@H]3Oc4c(O)ccc5c4[C@@]34CCN(CC3CC3)[C@H](C5)[C@]4(O)C2)N(Cc2ccccc2)C1=O` [5g], for which the Kd on DOPr [1] was determined as 0.23 nM; on MOPr [2], 0.5 nM; on KOPr [3] it was 0.23 nM.
Consider `C[C@H]1CC2=C([C@@H]3Oc4c(O)ccc5c4[C@@]34CCN(CC3CC3)[C@H](C5)[C@]4(O)C2)N(Cc2ccccc2)C1=O` [5h], for which the Kd at DOPr [1] is 0.57 nM; on MOPr [2], 0.6 nM; on KOPr [3], 2.03 nM.
In the case of `O=C1[C@H](CCO)CC2=C([C@@H]3Oc4c(O)ccc5c4[C@@]34CCN(CC3CC3)[C@H](C5)[C@]4(O)C2)N1Cc1ccccc1` [5i], the Kd on DOPr [1] came out at 0.47 nM; on MOPr [2] it was 0.35 nM; at KOPr [3], 0.73 nM. Moreover, at KOPr [3], the “fold more potent as KOPr antagonist than 17-methyl equivalent” value is listed as 40 fold.
In the case of `O=C1[C@@H](CCO)CC2=C([C@@H]3Oc4c(O)ccc5c4[C@@]34CCN(CC3CC3)[C@H](C5)[C@]4(O)C2)N1Cc1ccccc1` [5j], the Kd on DOPr [1] was 0.93 nM; on MOPr [2], 1.62 nM; on KOPr [3] it was 2.22 nM.
As to `O=C1CCC2=C([C@@H]3Oc4c(O)ccc5c4[C@@]34CCN(CC3CC3)[C@H](C5)[C@]4(O)C2)N1Cc1ccccc1` [5k, 1′-Benzyl-17-cyclopropylmethyl-6,7-didehydro-4,5-epoxy-4′,5′-dihydro-3,14-dihydroxy-pyrido[2,3: 6,7-]morphinan-6(1H)-one], the Kd on MOPr [2] was 0.2 nM. Besides, at KOPr [3], the Kd turned out to be 0.13 nM and the “fold more potent as KOPr antagonist than 17-methyl equivalent” value is “over 160 fold”.
Consider `O=C1CCC2=C([C@@H]3Oc4c(O)ccc5c4[C@@]34CCN(CC3CC3)[C@H](C5)[C@]4(O)C2)N1CC1CCCCC1` [5n, 1′-Cyclohexylmethyl-17-cyclopropylmethyl-6,7-didehydro-4,5-epoxy-4′,5′-dihydro-3,14-dihydroxy-pyrido[2,3: 6,7-]morphinan-6(1H)-one], for which the Kd on MOPr [2] is 0.27 nM; on KOPr [3], 0.48 nM.
For `Cc1[nH]c2c(c1Cc1ccccc1)C[C@@]1(O)[C@H]3Cc4ccc(O)c5c4[C@@]1(CCN3CC1CC1)[C@H]2O5` [6b], the “DOPr antagonist selectivity over both MOPr and KOPr” value in the assay on DOPr [6] was 50 fold.
As for `CN1CC[C@]23c4c5ccc(O)c4O[C@H]2c2ncccc2C[C@@]3(O)[C@H]1C5` [7a, reference compound], the “fold lower MOPr affinity than 5b” value on MOPr [7] stood at 27 fold. Also, at DOPr [4], the “fold lower DOPr affinity than 5b” value came out at 20 fold. Moreover, in the assay with MOPr [8], the EC50 was 3000 nM. Also, the “fold lower KOPr affinity than 5b” value at KOPr [5] turned out to be 130 fold.
For `Oc1ccc2c3c1O[C@H]1c4ncccc4C[C@@]4(O)[C@@H](C2)N(CC2CC2)CC[C@]314` [7b], on MOPr [9], the Kd was 164 nM. Besides, the “fold lower MOPr antagonist potency than 5k” value in the assay on MOPr [10] is recorded as 800 fold.

By EC50 is commonly meant the midpoint of the concentration-response curve.
